Data as given in US20250283871A1, “COMPOSITIONS AND METHODS FOR MODULATING THE INTERACTION BETWEEN SS18-SSX FUSION ONCOPROTEIN AND NUCLEOSOMES” (Dana-Farber Cancer Institute, Inc., priority 2020, published 2025).

Key:
[1] = test system: unmodified or H2A K119Ub-modified nucleosomes; experiment: Fluorescence polarization assay; assay type: binding; details: H2A K119Ub versus unmodified nucleosomes
[2] = test system: BAF complex subunits and histone proteins; experiment: Mass spectrometry proteomics of purified HA-SS18 WT and HA-SS18-SSX1 complexes (Tables 5A-5E); parameters: species or system human; details: MS of HA purifications
Protocol: Confluent plates were scraped to remove cells and cells were washed with PBS. Cell suspension was spun down by centrifugation at 3000 rpm for 5 minutes at 4° C. and pellets were resuspended in hypotonic buffer (10 mM Tris HCl pH 7.5, 10 mM KCl, 1.5 mM MgCL2, 1 mM DTT, 1 mM PMSF) and incubated on ice for 5 minutes. Following incubation, cell suspension was spun down by centrifugation at 5000 rpm for 5 minutes at 4° C., and pellets were resuspended in 5× volume of fresh hypotonic buffer (with protease inhibitor cocktail, Roche C756U27) and then cells were homogenized using a Dounce homogenizer (glass). Cell suspension was layered onto hypotonic buffer sucrose cushion made with 30% sucrose w/v, spun down by centrifugation at 5000 rpm for 1 hour at 4° C. followed by removal of the cytosol-containing layer. The nuclei containing pellets were resuspended in high salt buffer (50 mM Tris HCl pH 7.5, 300 mM KCl, 1 mM MgCL2, 1 mM EDTA, 1 mM, 1% NP40, 1 mM DTT, 1 mM PMSF and protease inhibitor cocktail) and then the homogenate rotated for 1 hour at 4° C. Homogenates were then spun down by centrifugation at 20,000 rpm for 1 hour at 4° C. in a SW32Ti rotor (Beckman Coulter). The soluble proteins, consisting of the nuclear extract (NE) fraction, was separated from the insoluble chromatin pellet, consisting of the chromatin (CHR) fraction. […]

[3] = test system: nucleosomes; experiment: Restriction enzyme accessibility assay (REAA) nucleosome remodeling assay; assay type: biochemical; details: 37 degrees C, 0-40 min
Protocol: SMARCA4 (BRG1) levels of the ammonium sulfate nuclear extracts were normalized via BCA protein quantification and Silver Stain analyses for HA-SS18 and HA-SS18-SSX conditions. Protein was diluted for final reaction concentration of 150 μg/mL in REAA buffer (20 mM HEPES, pH 8.0, 50 mM KCl, 5 mM MgCl2) containing 0.1 mg/mL BSA, 1 mM DTT, 20 nM nucleosomes (EpiDyne Nucleosome Remodeling Assay Substrate ST601-GATC1, EpiCypher). The REAA mixture was incubated at 37° C. for 10 min, and reaction was initiated using 1-2 mM ATP (Ultrapure ATP, Promega) and 0.005 U/mL DpnJJ Restriction Enzyme (New England Biolabs). The REAA reaction mixture was quenched with 20-24 mM EDTA and placed on ice. Proteinase K (Ambion) was added at 100 mg/mL for 30-60 min, followed by either AMPure bead DNA purification and D1000 HS DNA ScreenTape Analysis (Agilent) or mixing with GelPilot® Loading Dye (QIAGEN) and loading onto 8% TBE gel (Novex 8% TBE Gels, Thermo Fisher). TBE gels were stained with either SYBR®-Safe (Invitrogen) or Syto®-60 Red Fluorescent Nucleic Acid Stain (Invitrogen), followed by imaging with UV light on an Alpha Innotech AlphaImager™ 2200 and/or with 652 nm light excitation on a Li-Cor Odyssey® CLx imaging system (LI-COR).

[4] = test system: recombinant mononucleosome; experiment: ATPase assay (ADP-Glo); assay type: biochemical; details: 0-40 min
Protocol: ATPase consumption assays were performed using the ADP-Glo Kinase Assay kit (Promega). The same conditions as the REAA nucleosome remodeling assay described above were used. Following incubation with desired substrates for 40 min at 37° C., 1× volume of ADP-Glo Reagent was used to quench the reaction and incubated at RT for 40 min. 2× volume of the Kinase Detection Reagent was then added and incubated at RT for 1 h. Luminescence readout was recorded. Substrates used for this assay were purified recombinant mononucleosome (EpiDyne Nucleosome Remodeling Assay Substrate ST601-GATC1, EpiCypher, Cat #16-4101). Nuclear extract material was used at 150ug for each ARID1A-IP using ARID1A antibody (Cell Signaling, Cat #12354S).

[5] = test system: histone proteins; experiment: Purification of mSWI/SNF (BAF) complexes from NE and CHR fractions, colloidal blue staining; parameters: species or system human
Protocol: Stable HEK293T cell lines expressing by lentiviral infection HA-SS18 WT or HA-SS18-SSX1 were grown in 150 mm dishes. Complexes were purified using methods previously described with a few modifications (Mashtalir et al. (2014) Mol. Cell 54:392-406). Confluent plates were scraped to remove cells and cells were washed with PBS. Cell suspension was spun down by centrifugation at 3000 rpm for 5 minutes at 4° C. and pellets were resuspended in hypotonic buffer (10 mM Tris HCl pH 7.5, 10 mM KCl, 1.5 mM MgCL2, 1 mM DTT, 1 mM PMSF) and incubated on ice for 5 minutes. Following incubation, cell suspension was spun down by centrifugation at 5000 rpm for 5 minutes at 4° C., and pellets were resuspended in 5× volume of fresh hypotonic buffer (with protease inhibitor cocktail, Roche C756U27) and then cells were homogenized using a Dounce homogenizer (glass). Cell suspension was layered onto hypotonic buffer sucrose cushion made with 30% sucrose w/v, spun down by centrifugation at 5000 rpm for 1 hour at 4° C. followed by removal of the cytosol-containing layer. The nuclei containing pellets were resuspended in high salt buffer (50 mM Tris HCl pH 7.5, 300 mM KCl, 1 mM MgCL2, 1 mM EDTA, 1 mM, 1% NP40, 1 mM DTT, 1 mM PMSF and protease inhibitor cocktail) and then the homogenate rotated for 1 hour at 4° C. […]

[6] = test system: H2A K119Ub-modified nucleosomes; experiment: Pull down of endogenous HA-SS18- or HA-SS18-SSX-bound BAF complexes with WT or H2A K119Ub-modified nucleosomes; assay type: binding; details: endogenously purified complexes
Protocol: Difference is the score calculated between SYO1 (SS18-SSX+) cells and SW982 cells (negative for fusion, histologic mimic). mSWI/SNF, PRC1, PRC2 members are shown. […] H3 immunoblot is used for assessment of nucleosome binding to GST-SSX. […] SMARCA4 and H3 immunoblots are shown. FIG. 11G has two panels. […] Peptides were incubated −/+presence of USP2 treatment. Error bars=st.dev. […] H3 immunoblot is used for assessment of nucleosome binding to GST-SSX. […] Data for GST-SSX with WT nucleosomes and H2A K119Ub nucleosomes are shared between FIG. 11E.
SS cell lines containing the SS18-SSX fusion oncoprotein are highlighted in red. […] Difference is the score calculated between SYO1, Yamato-SS, SCS241 (SS18-SSX+) cells and SW982 cells (negative for fusion, histologic mimic). Blue indicates enriched for dependency. mSWI/SNF, PRC1, PRC2 members are shown. […] Synovial sarcoma cell lines are indicated in pink; all other cell lines are represented in gray. […] (Project DRIVE; available on the World Wide Web at oncologynibr.shinyapps.io/drive/). SS cell lines containing the SS18-SSX fusion oncoprotein are highlighted in red. […] H3 immunoblot is used for assessment of nucleosome binding to GST-SSX. […] SMARCA4 and H3 immunoblots are shown. […] Identified proteins labeled (Left). WB of the samples on the right indicating presence of histone H3 (Right).

[7] = biological target: mononucleosomes (Homo sapiens, UniProt O60814+P04908); experiment: Peptide competition experiments; assay type: binding; details: SSX 34aa versus SMARCB1 aa351-385
[8] = test system: mammalian mononucleosomes from HEK293T cells; experiment: Protein and peptide pull downs with mammalian mononucleosomes; assay type: binding, human
Protocol: (§1) The flow through was removed, the immobilized bait was incubated with 1-2 μg of purified mammalian mono-nucleosomes from HEK293T cells, recombinant mono-nucleosomes (EpiCypher, 16-0006), recombinant H2AK119Ub mono-nucleosomes (EpiCypher, 16-0020) or recombinant protein for 3 hours at 4° C., and the beads were washed 3× with EB150 buffer and then eluted in 2×LDS with 200 mM DTT with heating at 95° C. for 5 minutes. The pull downs were then visualized by immunoblot analysis or colloidal blue staining.
Mammalian mononucleosomes were purified from HEK293T cells similar to as previously described (Mashtalir et al. (2014) Mol. Cell 54:392-406). Cells were scraped from plates, washed with cold PBS, and centrifuged at 5,000 rpm for 5 min at 4° C. Pellets were resuspended in hypotonic buffer (EBO: 50 mM Tris HCl, pH 7.5, 1 mM EDTA, 1 mM MgCl2, 0.1% NP40 supplemented with 1 mM DTT, 1 mM PMSF, and protease inhibitor cocktail (Roche, C756U27) and incubated for 5 min on ice. The suspension was centrifuged at 5,000 rpm for 5 min at 4° C., and pellets were resuspended in 5 volumes of EB420 (EBO: 50 mM Tris HCl, pH 7.5, 420 mM NaCl, 1 mM MgCl2, 0.1% NP40 with supplemented with 1 mM DTT and 1 mM PMSF containing protease inhibitor cocktail (Roche, C756U27). Homogenate incubated on rotator for 1 hour at 4° C. The supernatant was then centrifuged at 20,000 rpm (30,000×g) for 1 hour at 4° C. using a SW32Ti rotor. Supernatant was then discarded and chromatin pellet was washed in MNAse buffer (20 mM Tris-HCl pH 7.5, 100 mM KCl, 2 mM MgCl2, 1 mM CaCl2, […] sucrose, 0.1% NP-40, and protease inhibitor cocktail) three times. Following MNase treatment (3 U/mL for 30 min at room temperature, Sigma-Aldrich), the reaction was quenched with 5 mM of EGTA and 5 mM of EDTA. The samples were then centrifuged at 20,000×g for 1 hour at 4° C. to obtain the soluble chromatin fraction. Soluble chromatin fraction was loaded onto 10-30% glycerol gradient (Mashtalir et al. (2014) Mol. Cell 54:392-406) and fractions containing mononucleosomes were isolated and concentrated using centrifugal filter (Amicon, EMD Millipore).

[9] = test system: WT, H2AUb or H2BUb nucleosomes; experiment: AlphaLisa binding assay with biotinylated nucleosomes; details: 10 nM biotinylated nucleosomes
[10] = test system: acidic patch mutant nucleosomes (D90N, E92K, and E113K); experiment: GST-SSX pull down with acidic patch mutant nucleosomes; assay type: binding; details: H2A D90N, H3 immunoblot
Protocol: as §1

[11] = test system: recombinant H2AK119Ub mono-nucleosomes; experiment: Pull downs with WT or H2A K119Ub nucleosomes; assay type: binding
Protocol: as §1

For “fluoro-labeled SSX: fluorescently-labeled SSX1 (78aa), in place of GST tag”, the “binding affinity by fluorescence polarization” value [1] was “higher binding affinity to H2A K119Ub-decorated nucleosomes compared to unmodified nucleosomes”.

“SS18-SSX-bound BAF complexes: BAF complexes purified via HA-tagged SS18-SSX expressed in HEK-293T cells” was tested, and the “peptides corresponding to the H2A K119Ub mark captured” value [2] was “captured only in the purifications of SS18-SSX-bound complexes”, the remodeling efficiency [3] was “slightly lower than that of WT SS18-bound complexes” and the ATPase activity [4] was “slightly lower than that of WT SS18-bound complexes”. For the same substance, the “core histone proteins captured” value [5] was “captured near-stoichiometric amounts of core histone proteins H2A, H2B, H3, and H4” and the “binding of H2A K119Ub-modified versus unmodified nucleosomes by BAF complexes” value [6] was “enriched for binding of recombinant H2A K119Ub-modified nucleosomes over unmodified nucleosomes”.

With “SMARCB1 C-term alpha helix: peptide of the SMARCB1 C-terminal alpha helical domain, aa 351-385” the “reciprocal competition for nucleosome acidic patch binding” value [7] was “unable to outcompete SSX from binding the nucleosomes”.

With “GST-SSX 78aa: GST-tagged recombinant C-terminal 78 residues of SSX1 (aa 111-188)” the “nucleosome binding in pull-down” value ([8]; mammalian mononucleosomes) was “sufficient for its nucleosomal interactions”, the “binding to mammalian versus recombinant, unmodified nucleosomes” value ([8]; pull-down) was “stronger than binding to recombinant, unmodified nucleosomes” and the “affinity to H2A K119Ub-decorated nucleosomes, AlphaLisa” value [9] was “significantly higher affinity to H2A K119Ub-decorated nucleosomes relative to unmodified nucleosomes or H2B K120Ub nucleosomes”. For the same substance, the “binding to acidic patch-mutant nucleosomes” value [10] was “near complete loss of SSX binding”, the “affinity to H2A K119Ub-decorated nucleosomes, pulldown” value ([11]; H3 immunoblot) was “significantly higher affinity to H2A K119Ub-decorated nucleosomes relative to unmodified nucleosomes or H2B K120Ub nucleosomes” and the “binding across differentially-marked recombinant and mammalian nucleosomes” value ([11]; screen of modified mononucleosomes) was “preferentially bound to H2A K119Ub and mammalian nucleosomes over unmodified nucleosomes or nucleosomes with other histone marks”.
